Read-outs that look alike come from different tables or passages of the source.
Legend:
[1] = water, ethanol; cited from earlier work
[2] = cited from earlier work
[3] = test system: type 2 diabetes rat model; experiment: test of type 2 diabetes rat model (streptozotocin, fast-generated NIDDM model); format: in vivo, Wistar rats; design: unit not given here; details: 2.4 ml/kg intubated, fasting 4 hours, blood 2 hours after dose; before treatment 27.14 ± 1.154; p<0.01
[4] = test system: type 2 diabetes patients; details: for postprandial blood glucose peak at breakfast: 0.9 ml at three meals daily, 7 days
Description: Patient keep measurable middling food and drink in the interim.

[5] = test system: healthy rats; experiment: blood glucose of healthy rats; details: rat, in vivo
[6] = test system: healthy volunteers; experiment: test to healthy volunteers; format: in vivo, human; details: for postprandial blood glucose peak at breakfast: 0.9 ml at three meals daily, 7 days
Experimental: A person, Healthy have not any disease.
A person, healthy without any disease. fasting blood glucose was waved in 5.0-5.4 mmol/L (79-96 mg/dl), in postprandial blood glucose 8-12.2 mmol/L ([…]) between. Abnormal glucose tolerance test.

[7] = test system: delayed type diabetic Wistar rat model (type 1 diabetes); experiment: delayed type streptozotocin plus CFA/IFA type 1 diabetes rat model; format: in vivo, Wistar rats; design: unit not given here; details: table: d-limonene 0.8 ml/kg; fasting 4 hours, 2 hours after dose; before treating 24.4 ± 2.958; p<0.01
[8] = test system: type 1 diabetes rat model (IDDM); experiment: test of type 1 diabetes rat model (streptozotocin, day 3-6 after injection); format: in vivo, rats; details: 2.4 ml/kg intubated, 2 hours after dose
Description: Establishment of a type 1 diabetes rat test model. Recent years, more people have definitely expressed that viewed streptozotocin-induced of diabetes test model. Although, it is a model of type 1 diabetes in principle, but can using as a model of type 2 diabetes.

[9] = test system: drug-induced diabetic rats; experiment: blood glucose in drug-induced diabetic rats, summary statement; format: in vivo; details: oral 0.8-2.4 ml/kg, within 0.5-2 hours
Description: The present invent can reduce fasting blood glucose of that severe case streptozotocin-induced rats of type 1 and type 2 diabetes.

[10] = Example 6 patient, treatment for 12 weeks
[11] = Example 7 patient, 7 days treatment

Question: With `C=C(C)C1CC=C(C)CC1` (stereo not shown) [Limonene, 1-methyl-4-prop-1-en-2-yl-cyclohexene] as the compound, how does the solubility [1] read?
Answer: Its solubility is “do not in water but in ethanol”.

Question: What about the “Perilla acid methyl ester and Dihydrotestosterone Perilla acid methyl ester in plasma” value ([2]; from initial limonene, after oral administration) of the same compound?
Answer: The value was 5%.

Question: What about the “eliminated in the CO2 exhaled” value ([2]; in vivo) of the same compound?
Answer: Its value is 2%.

Question: And the “eliminated in the dejecta” value ([2]; in vivo)?
Answer: Its value is 5%.

Question: What about the “converted to primary metabolites Dihydrotestosterone acid Perilla and Perilla acid” value ([2]; of limonene in plasma) of the same compound?
Answer: Its value is “about 35%”.

Question: What about the “converted to limonene 1,2-diol” value ([2]; of the initial volume) of the same compound?
Answer: Its value is “about 18%”.

Question: And the “eliminated in the urine” value ([2]; within 24 hours)?
Answer: Its value is “about 60%”.

Question: Which “fasting glucose after treatment” value [3] does the source give for `C=C(C)[C@H]1CC=C(C)CC1` [d-limonene, (4R)-1-methyl-4-prop-1-en-2-ylcyclohexene] here?
Answer: Its value is 19.39 ± 6.064.

Question: What about the “postprandial blood glucose peak at breakfast” value ([4]; Example 6 patient, before: under 15.6 mmol/L) of the same compound?
Answer: The value was 11.8 mmol/L.

Question: And the “hypoglycemic reaction without food” value ([4]; Example 6 patient, 6-8 hours after the meal, after 12 weeks)?
Answer: The value was “have not hypoglycemic reaction”.

Question: And the “time of postprandial blood glucose peak” value ([4]; Example 6 patient, 7 days treatment)?
Answer: The value was 1.25 h.

Question: And the peak value time [4, 10]?
Answer: The peak value time was 0.75 h.

Question: And the “postprandial blood glucose peak value” [4, 10]?
Answer: The value was 10.4 mmol/L.

Question: What about the “postprandial blood glucose peak at breakfast” value ([4]; Example 7 patient, before: maximum 23 mmol/L) of the same compound?
Answer: Its value is 18.7 mmol/L.

Question: What about the “blood glucose level average reduce, before to after treating” value [4, 11] of the same compound?
Answer: Its value is 6.99 mmol/L.

Question: And the “time of postprandial blood glucose peak” value [4, 11]?
Answer: The value was 1.25 h.

Question: What about the “effect on postprandial blood glucose levels” value ([4]; type 2 diabetes patients, 0.9 ml after three meals daily) of the same compound?
Answer: The value was “clear and stably reduce postprandial blood glucose levels”.

Question: And the “absorption from the gastrointestinal” value ([2]; after oral administration)?
Answer: Its value is “absorbed rapidly”.

Question: And the “absorbed drug excreted by the urethra” value ([2]; within 48 hours)?
Answer: Its value is 75-95%.

Question: And the “effect on blood glucose of healthy rats” value [5]?
Answer: Its value is “do not reduce blood glucose of healthy rats”.

Question: And the “blood glucose compared before and after treatment” value ([6]; Example 8, healthy person)?
Answer: The value was “blood glucose basically unchanged”.

Question: And the “time of postprandial blood glucose peak” value ([6]; Example 8, healthy person)?
Answer: Its value is 0.5 h.

Question: What about the “postprandial blood glucose peak at breakfast” value ([6]; Example 8, healthy person) of the same compound?
Answer: Its value is 6.3 to 8.4 mmol/L.

Question: And the “blood glucose compared before and after treatment” value ([6]; Example 9, person)?
Answer: The value was “blood glucose basically unchanged”.

Question: And the “time of postprandial blood glucose peak” value ([6]; Example 9, person)?
Answer: Its value is 0.5 h.

Question: What about the “postprandial blood glucose peak at breakfast” value ([6]; Example 9, person, abnormal glucose tolerance test, before 8-12.2 mmol/L) of the same compound?
Answer: The value was 10.3 to 11.7 mmol/L.

Question: And the “effect on postprandial or fasting blood glucose level in healthy” value ([6]; human, in vivo)?
Answer: Its value is “do not reduce postprandial or fasting blood glucose level”.

Question: What about the “fasting glucose after treating” value [7] of the same compound?
Answer: The value was 17.45 ± 1.886.

Question: And the “Blood glucose, First day” value ([8]; IDDM group 25.27 ± 2.632, p<0.01)?
Answer: The value was 20.26 ± 5.039 mmol/L.

Question: And the “Blood glucose, Four day” value ([8]; IDDM group 25.97 ± 2.966, p>0.05)?
Answer: The value was 23.32 ± 4.891 mmol/L.

Question: What about the “Blood glucose, Third day” value ([8]; IDDM group 26.08 ± 3.896, p<0.05) of the same compound?
Answer: The value was 21.88 ± 5.754 mmol/L.

Question: What about the “Blood glucose, 1-4 days Average” value ([8]; IDDM group 26.17 ± 2.858, p<0.05) of the same compound?
Answer: Its value is 21.89 ± 5.230 mmol/L.

Question: And the “Blood glucose, Second day” value ([8]; IDDM group 27.36 ± 1.243, p<0.01)?
Answer: The value was 22.08 ± 5.421 mmol/L.

Question: What about the “effect on blood glucose level” value [9] of the same compound?
Answer: The value was “blood glucose level reduce a lot”.

Source: US8337907B2, “Use of volatile oil from plants in preparing medicaments for preventing and treating diabetes” (priority 2007, dated 2012)
